Experiments:
HCV replicon genotype 1b = assay: microbe, parasite or virus in culture; assay type: cell-based; conditions: genotype 1b replicon cells, incubated 96 hours, NS3/4A ELISA readout
HCV replicon genotype 1a = assay: microbe, parasite or virus in culture; assay type: cell-based; conditions: genotype 1a replicon cells, incubated 96 hours, NS3/4A ELISA readout

Structure (SMILES)	IC50 (HCV replicon genotype 1b; Hepatitis C virus, 96 h)	IC50 (HCV replicon genotype 1a; Hepatitis C virus, 96 h)	IC50 (HCV replicon genotype 1b)	IC50 (HCV replicon genotype 1a)
CNC(=O)c1c(-c2ccc(F)cc2)oc2cc(N(C)S(C)(=O)=O)c(-c3ccc4c(n3)-c3cc5cccc(CN)c5n3CO4)cc12 [Compound 69]	45 nM	57 nM		
CNC(=O)c1c(-c2ccc(F)cc2)oc2cc(N(C)S(C)(=O)=O)c(-c3ccc4c(n3)-c3nc5ccccc5n3CO4)cc12 [Compound 136]	2.9 nM	3.5 nM		
CNC(=O)c1c(-c2ccc(F)cc2)oc2cc(N(C)S(C)(=O)=O)c(-c3cc4c(cn3)OC(CO)n3c-4cc4c(F)cccc43)cc12 (stereo not shown) [Compound 89]			0.9 nM	1.1 nM
CNC(=O)c1c(-c2ccc(F)cc2)oc2cc(N(C)S(C)(=O)=O)c(-c3ccc4c(n3)-c3cc5c(F)cccc5n3C(C(=O)O)O4)cc12 (stereo not shown) [Compound 112]	23 nM	20 nM		
CNC(=O)c1c(-c2ccc(F)cc2)oc2cc(N(C)S(C)(=O)=O)c(-c3cc4c(cn3)OCn3c-4cc4c(F)cccc43)cc12 [Compound 16]	2.3 nM	2.1 nM		
CNC(=O)c1c(-c2ccc(F)cc2)oc2cc(N(CCO)S(C)(=O)=O)c(-c3ccc4c(n3)-c3cc5c(F)cccc5n3CO4)cc12 [Compound 201]	5.5 nM	2.6 nM		
CNC(=O)c1c(-c2ccc(F)cc2)oc2cc(-c3ccoc3)c(-c3ccc4c(n3)-c3cc5c(F)cccc5n3CO4)cc12 [Compound 167]	17 nM	21 nM		
CNC(=O)c1c(-c2ccc(F)cc2)oc2cc(N(C)S(C)(=O)=O)c(-c3ccc4c(n3)-c3cc5ccccc5n3CO4)cc12 [Compound 1, 2-(4-fluorophenyl)-N-methyl-6-(N-methylmethylsulfonamido)-5-(6H-pyrido[2′,3′:5,6][1,3]oxazino[3,4-a]indol-2-yl)benzofuran-3-carboxamide]	4.8 nM	2.4 nM		
CNC(=O)c1c(-c2ccc(F)cc2)oc2cc(N(C)S(C)(=O)=O)c(-c3ccc4c(n3)-c3cc5c(F)c(F)ccc5n3CO4)cc12 [Compound 28]	4.5 nM	2.1 nM		
CNC(=O)c1c(-c2ccc(F)cc2)oc2cc(N(C3COC3)S(C)(=O)=O)c(-c3ccc4c(n3)-c3cc5c(F)cccc5n3CO4)cc12 [Compound 199]	5.9 nM	4.7 nM		
CNC(=O)c1c(-c2ccc(F)cc2)oc2cc(N(C)S(C)(=O)=O)c(-c3ccc4c(n3)-c3cc5c(C#N)cccc5n3CO4)cc12 [Compound 12]	1.7 nM	1.6 nM		
CNC(=O)c1c(-c2ccc(F)cc2)oc2cc(N(C)S(C)(=O)=O)c(-c3ncc4c(n3)-c3cc5ccccc5n3CO4)cc12 [Compound 4]	1.3 nM	0.7 nM		
CNC(=O)c1c(-c2ccc(F)cc2)oc2cc(N(C)S(C)(=O)=O)c(-c3cc4c(cn3)OCn3c-4cc4cc(F)ccc43)cc12 [Compound 35]	4.7 nM	2.5 nM		
CNC(=O)c1c(-c2ccc(F)cc2)oc2cc(N(C)S(C)(=O)=O)c(-c3ccc4c(c3)-c3cc5ccccc5n3CC(N(C)CCO)CO4)cc12 (stereo not shown) [Compound 86]	12 nM	17 nM		
CNC(=O)c1c(-c2ccc(F)cc2)oc2cc(N(C)S(C)(=O)=O)c(-c3ccc4c(n3)-c3nn5ccccc5c3CO4)cc12 [Compound 146, 2-(4-fluorophenyl)-N-methyl-5-(1-aza-6H-chromeno[4′,3′:3,4]pyrazolo[1,5-a]pyridin-2-yl)-6-(N-methylmethylsulfonamido)benzofuran-3-carboxamide]	37 nM	225 nM		
CNC(=O)c1c(-c2ccc(F)cc2)oc2cc(N(C)S(C)(=O)=O)c(-c3ncc4c(n3)-c3cc5c(F)cccc5n3CCO4)cc12 [Compound 8]	2.1 nM	1.6 nM		
CNC(=O)c1c(-c2ccc(F)cc2)oc2cc(N(C)S(C)(=O)=O)c(-c3ccc4c(n3)-c3c(Cl)c5c(Cl)cccc5n3CO4)cc12 [Compound 57]	13 nM	11 nM		
CNC(=O)c1c(-c2ccc(F)cc2)oc2cc(N(C)S(C)(=O)=O)c(-c3ccc4c(n3)-c3cc5c(F)cccc5n3C(C(=O)NC(C)C)O4)cc12 (stereo not shown) [Compound 111]	4.3 nM	4.5 nM		
CNC(=O)c1c(-c2ccc(F)cc2)oc2cc(N(C)S(C)(=O)=O)c(-c3cc4c(cn3)OCn3c-4cc4cccnc43)cc12 [Compound 50]	4.6 nM	15 nM		
CC(C)NC(=O)c1c(-c2ccc(F)cc2)oc2cc(N(C)S(C)(=O)=O)c(-c3ccc4c(n3)-c3cc5c(F)cccc5n3CO4)cc12 [Compound 158]	24 nM	42 nM		
CNC(=O)c1c(-c2ccc(F)cc2)oc2cc(N(C)S(C)(=O)=O)c(-c3ccc4c(n3)-c3cc5cccc(CN(C)C)c5n3CO4)cc12 [Compound 71]	4.5 nM	13 nM		

Structure (SMILES)	IC50 (HCV replicon genotype 1b; Hepatitis C virus, 96 h)	IC50 (HCV replicon genotype 1a; Hepatitis C virus, 96 h)	IC50 (HCV replicon genotype 1b)	IC50 (HCV replicon genotype 1a)
CNC(=O)c1c(-c2ccc(F)cc2)oc2cc(N(C)S(C)(=O)=O)c(-c3ccc4c(n3)-c3cc5c(F)cccc5n3C(C)O4)cc12 (stereo not shown) [Compound 38]			5.8 nM	3.2 nM
CNC(=O)c1c(-c2ccc(F)cc2)oc2cc(N(C)S(C)(=O)=O)c(-c3ccc4c(c3)-c3nc5ccccn5c3CO4)cc12 [Compound 142, 5-(6H-chromeno[4′,3′:4,5]imidazo[1,2-a]pyridin-2-yl)-2-(4-fluorophenyl)-N-methyl-6-(N-methylmethylsulfonamido)benzofuran-3-carboxamide]	4 nM	4.1 nM		
CN(c1cc2oc(-c3ccc(F)cc3)c(C(=O)NC3COC3)c2cc1-c1ccc2c(n1)-c1cc3c(F)cccc3n1CO2)S(C)(=O)=O [Compound 152]	15 nM	14 nM		
CNC(=O)c1c(-c2ccc(F)cc2)oc2cc(N(C)S(C)(=O)=O)c(-c3ccc4c(n3)-c3cc5c(F)cccc5n3C(CNCC(=O)O)O4)cc12 (stereo not shown) [Compound 116, 2-(((11-fluoro-2-(2-(4-fluorophenyl)-3-(methylcarbamoyl)-6-(N-methylmethylsulfonamido)benzofuran-5-yl)-6H-pyrido[2′,3′:5,6][1,3]oxazino[3,4-a]indol-6-yl)methyl)amino)acetic acid]	9.4 nM	53 nM		
CN(c1cc2oc(-c3ccc(F)cc3)c(C(=O)NC3CC3)c2cc1-c1ccc2c(n1)-c1cc3c(F)cccc3n1CO2)S(C)(=O)=O [Compound 157]	11 nM	7.6 nM		
CCNC(=O)c1c(-c2ccc(F)cc2)oc2cc(N(C)S(C)(=O)=O)c(-c3ccc4c(n3)-c3cc5c(F)cccc5n3CO4)cc12 [Compound 156]	2.9 nM	2.3 nM		
CNC(=O)c1c(-c2ccc(F)cc2)oc2cc(N(C)S(C)(=O)=O)c(-c3ccc4c(n3)-c3cc5c(F)cccc5n3C3(COC3)O4)cc12 [Compound 97]	4.4 nM	2.9 nM		
CNC(=O)c1c(-c2ccc(F)cc2)oc2cc(N(CC(F)F)S(C)(=O)=O)c(-c3ncc4c(n3)-c3cc5c(F)cccc5n3CO4)cc12 [Compound 186]	7.6 nM	4.4 nM		
CNC(=O)c1c(-c2ccc(F)cc2)oc2cc(N(C)S(C)(=O)=O)c(-c3ccc4c(c3)-c3cc5ccccc5n3CO4)cc12 [Compound 10]	2.4 nM	1.6 nM		
CNC(=O)c1c(-c2ccc(F)cc2)oc2cc(N(C)S(C)(=O)=O)c(-c3ccc4c(c3)-c3[nH]c5ccccc5c3C(c3ccccc3)O4)cc12 (stereo not shown) [Compound 63, 2-(4-fluorophenyl)-N-methyl-6-(N-methylmethylsulfonamido)-5-(6-phenyl-6,11-dihydrochromeno[4,3-b]indol-2-yl)benzofuran-3-carboxamide]	83 nM	92 nM		
CNC(=O)c1c(-c2ccc(F)cc2)oc2cc(-c3ccsc3)c(-c3ccc4c(n3)-c3cc5c(F)cccc5n3CO4)cc12 [Compound 166]	27 nM	69 nM		
CNC(=O)c1c(-c2ccc(F)cc2)oc2cc(N(C)S(C)(=O)=O)c(-c3ccc4c(c3)-c3cc5ccccc5n3CC(NCCCN(C)C)CO4)cc12 (stereo not shown) [Compound 81]	22 nM	36 nM		
CNC(=O)c1c(-c2ccc(F)cc2)oc2cc(N(C)S(C)(=O)=O)c(-c3ccc4c(n3)-c3cc5ncccc5n3CO4)cc12 [Compound 44]	2.4 nM	2.8 nM		
CNC(=O)c1c(-c2ccc(F)cc2)oc2cc(N(C)S(C)(=O)=O)c(-c3ccc4c(n3)-c3cc5c(F)cccc5n3C(C(=O)NC)O4)cc12 (stereo not shown) [Compound 110]			4.8 nM	3 nM
CCOC(=O)C1Oc2ccc(-c3cc4c(C(=O)NC)c(-c5ccc(F)cc5)oc4cc3N(C)S(C)(=O)=O)nc2-c2cc3c(F)cccc3n21 (stereo not shown) [Compound 113]	29 nM	32 nM		
CNC(=O)c1c(-c2ccc(F)cc2)oc2cc(N(C)S(C)(=O)=O)c(-c3ccc4c(n3)-c3[nH]c5cccc(F)c5c3C(c3nccs3)O4)cc12 (stereo not shown) [Compound 67]	10 nM	9.2 nM		
CNC(=O)c1c(-c2ccc(F)cc2)oc2cc(N(C)S(C)(=O)=O)c(-c3ccc4c(c3)-c3cc5ccccc5n3CC(NCCN3CCOCC3)CO4)cc12 (stereo not shown) [Compound 83]	12 nM	15 nM		
CNC(=O)c1c(-c2ccc(F)cc2)oc2cc(N(C)S(C)(=O)=O)c(-c3ccc4c(c3)-c3cc5ccccc5n3CC(NC3CCN(C)CC3)CO4)cc12 (stereo not shown) [Compound 82]	11 nM	15 nM		
CNC(=O)c1c(-c2ccc(F)cc2)oc2cc(N(C)S(C)(=O)=O)c(-c3ccc4c(n3)-c3cc5c(F)cccc5n3C(CN)O4)cc12 (stereo not shown) [Compound 114, 5-(6-(aminomethyl)-11-fluoro-6H-pyrido[2′,3′:5,6][1,3]oxazino[3,4-a]indol-2-yl)-2-(4-fluorophenyl)-N-methyl-6-(N-methylmethylsulfonamido)benzofuran-3-carboxamide]	18 nM	7.3 nM		
CCOC(=O)C(O)c1c2n(c3cccc(F)c13)COc1ccc(-c3cc4c(C(=O)NC)c(-c5ccc(F)cc5)oc4cc3N(C)S(C)(=O)=O)nc1-2 (stereo not shown) [Compound 206, ethyl 2-(11-fluoro-2-(2-(4-fluorophenyl)-3-(methylcarbamoyl)-6-(N-methylmethylsulfonamido)benzofuran-5-yl)-6H-pyrido[2′,3′:5,6][1,3]oxazino[3,4-a]indol-12-yl)-2-hydroxyacetate]	23 nM	15 nM		

Reference: US9265773B2, “Tetracyclic heterocycle compounds and methods of use thereof for the treatment of viral diseases” (priority 2011, dated 2016)
